Results published in article PMC11125359 (Pharmaceuticals, 2024).

Tested on: α-amylase
Assay: α-Amylase inhibition (anti-diabetic)
Assay type: biochemical
Conditions: equal concentrations (1000 µg/mL); mean ± SE

SMILES	Inhibition (%) α-Amylase [%]
O=C(Nc1ccccc1)c1c(Nc2ccccc2)n[nH]c1N=Cc1ccc(N2CCCCC2)cc1 [5a]	31.24 ± 0.05

Tested on: α-glucosidase
Assay: α-Glucosidase inhibition (anti-diabetic)
Assay type: biochemical
Conditions: equal concentrations (1000 µg/mL); mean ± SE

SMILES	Inhibition (%) α-Glucosidase [%]
O=C(Nc1ccccc1)c1c(Nc2ccccc2)n[nH]c1N=Cc1ccc(N2CCCCC2)cc1 [5a]	26.87 ± 0.05

Molecular target: acetylcholinesterase (AChE) (Homo sapiens, UniProt P22303)
Assay: biochemical
Conditions: same concentration (1000 µg/mL); mean ± SE

Chain of acetylcholinesterase (AChE) (P22303 32-614, species assumed): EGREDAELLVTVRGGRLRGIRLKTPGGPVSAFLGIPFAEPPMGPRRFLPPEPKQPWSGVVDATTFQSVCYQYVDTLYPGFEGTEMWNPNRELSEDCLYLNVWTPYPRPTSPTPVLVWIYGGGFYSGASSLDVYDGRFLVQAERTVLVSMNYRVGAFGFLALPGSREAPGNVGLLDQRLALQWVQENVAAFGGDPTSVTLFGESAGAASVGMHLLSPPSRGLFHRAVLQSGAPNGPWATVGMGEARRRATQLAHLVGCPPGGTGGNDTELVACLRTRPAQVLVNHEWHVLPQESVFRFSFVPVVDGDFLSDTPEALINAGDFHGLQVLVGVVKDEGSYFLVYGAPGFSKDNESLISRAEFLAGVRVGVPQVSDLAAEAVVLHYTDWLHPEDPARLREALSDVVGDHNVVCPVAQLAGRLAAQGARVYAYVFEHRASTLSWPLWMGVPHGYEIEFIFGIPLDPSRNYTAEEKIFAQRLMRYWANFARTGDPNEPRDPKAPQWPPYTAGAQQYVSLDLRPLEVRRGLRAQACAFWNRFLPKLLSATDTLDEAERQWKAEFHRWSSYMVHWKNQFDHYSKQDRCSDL

SMILES	inhibition at 1000 µg/mL [%]
O=C(Nc1ccccc1)c1c(Nc2ccccc2)n[nH]c1N=Cc1ccc(N2CCCCC2)cc1 [5a]	42.05 ± 0.03

Molecular target: bovine serum albumin (BSA) (Bos taurus, UniProt P02769)
Assay: not given
Conditions: equal concentrations (1000 µg/mL); mean ± SE

Chain of bovine serum albumin (BSA) (P02769 25-607): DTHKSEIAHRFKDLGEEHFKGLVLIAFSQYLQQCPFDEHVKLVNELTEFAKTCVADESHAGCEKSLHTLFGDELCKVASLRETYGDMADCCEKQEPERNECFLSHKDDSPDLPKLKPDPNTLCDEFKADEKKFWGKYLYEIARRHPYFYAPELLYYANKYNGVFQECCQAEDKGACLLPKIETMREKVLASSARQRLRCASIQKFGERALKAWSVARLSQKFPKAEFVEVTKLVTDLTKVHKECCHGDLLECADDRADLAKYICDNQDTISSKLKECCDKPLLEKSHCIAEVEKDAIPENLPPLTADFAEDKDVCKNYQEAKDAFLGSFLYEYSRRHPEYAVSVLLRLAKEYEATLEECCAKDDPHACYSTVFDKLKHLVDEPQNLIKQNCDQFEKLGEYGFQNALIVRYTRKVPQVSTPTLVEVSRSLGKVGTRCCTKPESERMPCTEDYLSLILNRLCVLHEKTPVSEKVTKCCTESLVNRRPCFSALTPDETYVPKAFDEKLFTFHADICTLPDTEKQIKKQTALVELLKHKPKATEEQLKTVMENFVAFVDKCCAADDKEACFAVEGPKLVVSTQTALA

SMILES	Inhibition (%) Protein Denaturation [%]
O=C(Nc1ccccc1)c1c(Nc2ccccc2)n[nH]c1N=Cc1ccc(N2CCCCC2)cc1 [5a]	26.83 ± 0.03

Tested on: proteinase enzyme (trypsin)
Assay: Proteinase enzyme inhibition (anti-inflammatory)
Assay type: biochemical
Conditions: equal concentrations (1000 µg/mL); mean ± SE

SMILES	Inhibition (%) Proteinase [%]
O=C(Nc1ccccc1)c1c(Nc2ccccc2)n[nH]c1N=Cc1ccc(N2CCCCC2)cc1 [5a]	23.33 ± 0.03

Tested on: human colon cancer (Caco-2) cell line
Assay: cells
Assay type: cell-based
Conditions: Conc.: 5a 13.45, 5d 12.64, 5e 12.29, 5f 11.81, 7a 12.72, 7f 11.24, DOX 11.50

SMILES	Viability %, Caco-2, 1st concentration [%]
O=C(Nc1ccccc1)c1c(Nc2ccccc2)n[nH]c1N=Cc1ccc(N2CCCCC2)cc1 [5a]	82.93

Same assay, conditions: Conc.: 5a 26.91, 5d 25.27, 5e 24.58, 5f 23.63, 7a 25.43, 7f 22.48, DOX 23.00

SMILES	Viability %, Caco-2, 2nd concentration [%]
O=C(Nc1ccccc1)c1c(Nc2ccccc2)n[nH]c1N=Cc1ccc(N2CCCCC2)cc1 [5a]	74.41

Same assay, conditions: Conc.: 5a 53.81, 5d 50.55, 5e 49.15, 5f 47.26, 7a 50.86, 7f 44.96, DOX 46.00

SMILES	Viability %, Caco-2, 3rd concentration [%]
O=C(Nc1ccccc1)c1c(Nc2ccccc2)n[nH]c1N=Cc1ccc(N2CCCCC2)cc1 [5a]	55.38

Same assay, conditions: Conc.: 5a 107.63, 5d 101.09, 5e 98.31, 5f 94.51, 7a 101.72, 7f 89.93, DOX 91.99

SMILES	Viability %, Caco-2, 4th concentration [%]
O=C(Nc1ccccc1)c1c(Nc2ccccc2)n[nH]c1N=Cc1ccc(N2CCCCC2)cc1 [5a]	33.22

Same assay, conditions: Conc.: 5a 215.26, 5d 202.19, 5e 196.61, 5f 189.03, 7a 203.44, 7f 179.85, DOX 183.99

SMILES	Viability %, Caco-2, 5th concentration [%]
O=C(Nc1ccccc1)c1c(Nc2ccccc2)n[nH]c1N=Cc1ccc(N2CCCCC2)cc1 [5a]	25.84

Same assay, conditions: Homo sapiens, Caco-2; 48 h, MTT; mean ± SE; read-out: Cytotoxic activity IC50, Colon (Caco-2)

SMILES	IC50 [µM]
O=C(Nc1ccccc1)c1c(Nc2ccccc2)n[nH]c1N=Cc1ccc(N2CCCCC2)cc1 [5a]	60.29 ± 0.14

Same assay, conditions: IC50 on normal cells (WI-38)/IC50 on Caco-2

SMILES	Therapeutic Index (TI), Colon (Caco-2)
O=C(Nc1ccccc1)c1c(Nc2ccccc2)n[nH]c1N=Cc1ccc(N2CCCCC2)cc1 [5a]	7.32

Tested on: not listed separately
Assay: Cytotoxic activity, MTT assay, normal lung (WI-38)
Assay type: cell-based
Conditions: human, WI-38 normal lung cells, Conc. as printed: 5a 53.81, 5d 50.55, 5e 49.15, 5f 47.26, 7a 50.86, 7f 44.96, DOX 46.00; read-out: Viability %, WI-38, 3rd concentration

SMILES	viability at 48 h [%]
O=C(Nc1ccccc1)c1c(Nc2ccccc2)n[nH]c1N=Cc1ccc(N2CCCCC2)cc1 [5a]	69.5

Same assay, conditions: human, WI-38 normal lung cells, Conc. as printed: 5a 107.63, 5d 101.09, 5e 98.31, 5f 94.51, 7a 101.72, 7f 89.93, DOX 91.99; read-out: Viability %, WI-38, 4th concentration

SMILES	viability at 48 h [%]
O=C(Nc1ccccc1)c1c(Nc2ccccc2)n[nH]c1N=Cc1ccc(N2CCCCC2)cc1 [5a]	54.2

Same assay, conditions: human, WI-38 normal lung cells, Conc.: 5a 13.45, 5d 12.64, 5e 12.29, 5f 11.81, 7a 12.72, 7f 11.24, DOX 11.50; read-out: Viability %, WI-38, 1st concentration

SMILES	viability at 48 h [%]
O=C(Nc1ccccc1)c1c(Nc2ccccc2)n[nH]c1N=Cc1ccc(N2CCCCC2)cc1 [5a]	81.4

Same assay, conditions: human, WI-38 normal lung cells, Conc.: 5a 26.91, 5d 25.27, 5e 24.58, 5f 23.63, 7a 25.43, 7f 22.48, DOX 23.00; read-out: Viability %, WI-38, 2nd concentration

SMILES	viability at 48 h [%]
O=C(Nc1ccccc1)c1c(Nc2ccccc2)n[nH]c1N=Cc1ccc(N2CCCCC2)cc1 [5a]	75.5

Same assay, conditions: human, WI-38 normal lung cells, Conc.: 5a 215.26, 5d 202.19, 5e 196.61, 5f 189.03, 7a 203.44, 7f 179.85, DOX 183.99; read-out: Viability %, WI-38, 5th concentration

SMILES	viability at 48 h [%]
O=C(Nc1ccccc1)c1c(Nc2ccccc2)n[nH]c1N=Cc1ccc(N2CCCCC2)cc1 [5a]	38.3

Same assay, conditions: human, WI-38 normal lung cells; 48 h, MTT; mean ± SE; read-out: Cytotoxic activity IC50, Normal Lung (WI-38)

SMILES	IC50 at 48 h [µM]
O=C(Nc1ccccc1)c1c(Nc2ccccc2)n[nH]c1N=Cc1ccc(N2CCCCC2)cc1 [5a]	442 ± 8.8

Tested on: caspase-3
Assay: Caspase-3 ELISA in treated A549 cells
Assay type: cell-based, human
Conditions: DMSO control 85.92 ± 0.12

SMILES	Caspase-3 level, Lung (A549) [pg/mL]
O=C(Nc1ccccc1)c1c(Nc2ccccc2)n[nH]c1N=Cc1ccc(N2CCCCC2)cc1 [5a]	184.74 ± 0.26

Tested on: Bcl-2
Assay: Bcl-2 ELISA in treated A549 cells
Assay type: cell-based, human
Conditions: DMSO control 9.83 ± 0.05

SMILES	Bcl-2 level, Lung (A549) [ng/mL]
O=C(Nc1ccccc1)c1c(Nc2ccccc2)n[nH]c1N=Cc1ccc(N2CCCCC2)cc1 [5a]	6.55 ± 0.03

Tested on: caspase-3
Assay: Caspase-3 ELISA in treated Caco-2 cells
Assay type: cell-based, human
Conditions: DMSO control 97.06 ± 0.14

SMILES	Caspase-3 level, Colon (Caco-2) [pg/mL]
O=C(Nc1ccccc1)c1c(Nc2ccccc2)n[nH]c1N=Cc1ccc(N2CCCCC2)cc1 [5a]	208.68 ± 0.31

Tested on: Bcl-2
Assay: Bcl-2 ELISA in treated Caco-2 cells
Assay type: cell-based, human
Conditions: DMSO control 7.99 ± 0.08

SMILES	Bcl-2 level, Colon (Caco-2) [ng/mL]
O=C(Nc1ccccc1)c1c(Nc2ccccc2)n[nH]c1N=Cc1ccc(N2CCCCC2)cc1 [5a]	5.33 ± 0.05

Tested on: not listed separately
Assay: Iron-reducing power (IRP)
Conditions: equal concentrations (1000 µg/mL); mean ± SE, three replicates
Method: All in vitro biological activities were assessed in the tested compounds at equal concentrations (1000 µg/mL). All assays were carried out in triplicate.
In vitro biological activities
The total antioxidant capacity (TAC) was determined by analyzing the green phosphate/Mo5+ complex at a wavelength (λ) of 695 nm, following the procedure described by Prieto
et al. Samples (at each concentration) were mixed with a reagent solution containing 0.3 N sulfuric
acid, 28 mM sodium phosphate, and 4 mM ammonium molybdate. Methanol (80%) was used in place
of the sample for the blank. The tubes were sealed and incubated in a boiling water bath for 90
minutes. After cooling to room temperature, the absorbance was measured at 695 nm against the
blank. Ascorbic acid was used at the same concentrations as a standard. The antioxidant capacity was
expressed as mg gallic acid equivalent per gram weight.
The iron reducing power was determined as µg/mL using the method proposed by Oyaizu
In brief, 1ml of the tested sample (at each concentration) was combined with 1mL of 200mM
sodium phosphate buffer (pH 6.6) and 1mL of 1% potassium ferricyanide. The mixture was then
incubated at 50°C for 20 minutes, followed by the addition of 1mL of trichloroacetic acid (10%). After
centrifugation at 2000rpm for 10 minutes, the upper layer solution (2.5 mL) was mixed with 2.5 mL of double deionized water and 1mL of fresh ferric chloride (0.1%). The absorbance was measured at
700nm against a blank prepared without the sample. Ascorbic acid was used at the same
concentrations as a standard. A high absorbance at 700nm indicates a higher reducing power in the
(§1) The 1,1-Diphenyl-2-picryl-hydrazyl (DPPH) radical scavenging activities were evaluated using the method described by Rahman et al. An antioxidant substance capable of donating a
(§2) hydrogen atom to a solution containing DPPH- can reduce the stable free radical, causing the solution
(§3) to change color from violet to pale yellow. The remaining DPPH- radical was quantified by
(§4) nm using a spectroscopic method. Two milliliters of a DPPH solution (100 µM) in ethanol were mixed
(§5) with 2 mL of the sample (at each concentration). The reaction mixture for each concentration was
(§6) thoroughly vortexed and then incubated in the dark at room temperature for 30 minutes. The
(§7) absorbance was then measured spectrophotometrically at 518 nm against a blank (ethanol). For the
(§8) control, 2 mL of ethanol was added instead of the sample and run simultaneously with the test.
(§9) Ascorbic acid was used at the same concentrations as a positive control. Percent inhibition of the
(§10) DPPH free radical was calculated. The median inhibitory concentration (IC 50) for each tested
The procedure for the 2,2'-azinobis-(3-ethylbenzothiazoline-6-sulfonic acid) (ABTS) assay
potassium persulfate solution (2.4 mM). The working solution was prepared by mixing the two stock
solutions in equal quantities and allowing them to react at room temperature in a dark place for 14
hours. The solution was then diluted by mixing 1 mL of ABTS solution with 60 mL of methanol to
was prepared for each assay. The tested samples (at each concentration) were allowed to react with 1
mL of the ABTS solution, and the absorbance was taken at 734 nm after 7 minutes using a
spectrophotometer. The ABTS scavenging capacities of the samples were compared with that of
ascorbic acid (at the same concentrations).

SMILES	Iron-Reducing Power (IRP) [µg/mL]
O=C(Nc1ccccc1)c1c(Nc2ccccc2)n[nH]c1N=Cc1ccc(N2CCCCC2)cc1 [5a]	34.27 ± 0.07

Tested on: not listed separately
Assay: ABTS radical scavenging assay
Conditions: equal concentrations (1000 µg/mL); mean ± SE

SMILES	ABTS (%) inhibition [%]
O=C(Nc1ccccc1)c1c(Nc2ccccc2)n[nH]c1N=Cc1ccc(N2CCCCC2)cc1 [5a]	75.46 ± 0.05

Tested on: not listed separately
Assay: DPPH radical-scavenging activity
Conditions: read-out: DPPH (IC50); mean ± SE, three replicates
Method: In vitro biological activities
as §1, §2, §3, §4, §5, §6, §7, §8, §9, §10

SMILES	IC50 [µM]
O=C(Nc1ccccc1)c1c(Nc2ccccc2)n[nH]c1N=Cc1ccc(N2CCCCC2)cc1 [5a]	26.43 ± 0.01

Tested on: human lung cancer (A549) cell line
Assay: Cytotoxic activity, MTT assay, lung (A549)
Conditions: Conc.: 5a 13.45, 5d 12.64, 5e 12.29, 5f 11.81, 7a 12.72, 7f 11.24, DOX 11.50

SMILES	Viability %, A549, 1st concentration [%]
O=C(Nc1ccccc1)c1c(Nc2ccccc2)n[nH]c1N=Cc1ccc(N2CCCCC2)cc1 [5a]	97.46

Same assay, conditions: Conc.: 5a 26.91, 5d 25.27, 5e 24.58, 5f 23.63, 7a 25.43, 7f 22.48, DOX 23.00

SMILES	Viability %, A549, 2nd concentration [%]
O=C(Nc1ccccc1)c1c(Nc2ccccc2)n[nH]c1N=Cc1ccc(N2CCCCC2)cc1 [5a]	87.31

Same assay, conditions: Conc.: 5a 53.81, 5d 50.55, 5e 49.15, 5f 47.26, 7a 50.86, 7f 44.96, DOX 46.00

SMILES	Viability %, A549, 3rd concentration [%]
O=C(Nc1ccccc1)c1c(Nc2ccccc2)n[nH]c1N=Cc1ccc(N2CCCCC2)cc1 [5a]	60.91

Same assay, conditions: Conc.: 5a 107.63, 5d 101.09, 5e 98.31, 5f 94.51, 7a 101.72, 7f 89.93, DOX 91.99

SMILES	Viability %, A549, 4th concentration [%]
O=C(Nc1ccccc1)c1c(Nc2ccccc2)n[nH]c1N=Cc1ccc(N2CCCCC2)cc1 [5a]	46.48

Same assay, conditions: Conc.: 5a 215.26, 5d 202.19, 5e 196.61, 5f 189.03, 7a 203.44, 7f 179.85, DOX 183.99

SMILES	Viability %, A549, 5th concentration [%]
O=C(Nc1ccccc1)c1c(Nc2ccccc2)n[nH]c1N=Cc1ccc(N2CCCCC2)cc1 [5a]	20.20

Same assay, conditions: Homo sapiens, A549, 48 h, read-out: Cytotoxic activity IC50, Lung (A549)

SMILES	IC50 [µM]
O=C(Nc1ccccc1)c1c(Nc2ccccc2)n[nH]c1N=Cc1ccc(N2CCCCC2)cc1 [5a]	68.84 ± 0.14

Tested on: not listed separately
Assay: Total antioxidant capacity (TAC), phosphomolybdenum method
Conditions: equal concentrations (1000 µg/mL); mean ± SE, three replicates

SMILES	Total Antioxidant Capacity (TAC) [mg Gallic Acid/g]
O=C(Nc1ccccc1)c1c(Nc2ccccc2)n[nH]c1N=Cc1ccc(N2CCCCC2)cc1 [5a]	52.25 ± 0.19
